Columns and labels:
[1] = Antiproliferative activity against human MDA-MB-231 cells after 48 hrs by MTT assay; assay type: functional, cell-based; conditions: MDA-MB-231, 48 h
[2] = Antiproliferative activity against human MCF7 cells after 48 hrs by MTT assay; assay type: functional, cell-based; conditions: MCF7, 48 h
[3] = Antiproliferative activity against human mammary epithelial cells after 48 hrs by MTT assay; assay type: cell-based, Epithelial cell
[4] = Safety index, ratio of compound IC50 to colchicine IC50 for human mammary epithelial cells; assay type: ADME, cell-based, Epithelial cell; conditions: read-out: Ratio IC50
[5] = tested on: MDA-MB-231; test: Effect on p27 mRNA expression in human MDA-MB-231 cells assessed as ratio of p27 to GAPDH expression level at 5 uM after 24 hrs by RT-PCR method (reference value: 0.23); assay type: functional
[6] = tested on: MDA-MB-231; test: Effect on Cdk6 mRNA expression in human MDA-MB-231 cells assessed as ratio of Cdk6 to GAPDH expression level at 5 uM after 24 hrs by RT-PCR method (reference value: 1.37); assay type: functional
[7] = tested on: MDA-MB-231; test: Effect on Bid gene expression in human MDA-MB-231 cells assessed as ratio of Bid to beta-actin expression level at 5 uM after 24 hrs by RT-PCR method (reference value: 0.17); assay type: functional
[8] = tested on: MDA-MB-231; test: Inhibition of Akt phosphorylation in human MDA-MB-231 cells after 48 hrs by immunoblot analysis; assay type: cell-based
[9] = tested on: MDA-MB-231; test: Effect on cyclin E mRNA expression in human MDA-MB-231 cells assessed as ratio of cyclin E to GAPDH expression level at 5 uM after 24 hrs by RT-PCR method (reference value: 0.13); assay type: functional
[10] = tested on: MCF7; test: Induction of apoptosis in human MCF7 cells assessed as early apoptotic cells at 5 uM after 24 hrs by Annexin V-FITC/propidium iodide staining based flow cytometry (reference value: 1.6%); assay type: functional
[11] = organism: Homo sapiens; test: Inhibition of Akt in human MDA-MB-231 cells assessed as ratio of phosphorylated GSK-3beta to GAPDH expression level at 5 uM after 48 hrs by immunoblot analysis (reference value: 0.14 to 1.50); assay type: cell-based
[12] = tested on: MDA-MB-231; test: Induction of apoptosis in human MDA-MB-231 cells assessed as early apoptotic cells at 5 uM after 24 hrs by Annexin V-FITC/propidium iodide staining based flow cytometry (reference value: 0.5%); assay type: functional
[13] = organism: Homo sapiens; test: Inhibition of Akt in human MDA-MB-231 cells assessed as ratio of phosphorylated GSK-3beta to GAPDH expression level at 2 uM after 48 hrs by immunoblot analysis (reference value: 0.14 to 1.50); assay type: cell-based
[14] = tested on: MDA-MB-231; test: Effect on p21 mRNA expression in human MDA-MB-231 cells assessed as ratio of p21 to GAPDH expression level at 5 uM after 24 hrs by RT-PCR method (reference value: 0.02); assay type: functional
[15] = tested on: MDA-MB-231; test: Inhibition of Akt in human MDA-MB-231 cells after 48 hrs by ELISA; assay type: cell-based
[16] = Cell cycle arrest in human MCF7 cells assessed as accumulation at S phase at 5 uM after 24 hrs by propidium iodide staining based flow cytometry (reference value: 4.23%); assay type: functional
[17] = tested on: MDA-MB-231; test: Induction of apoptosis in human MDA-MB-231 cells assessed as necrotic cells at 5 uM after 24 hrs by Annexin V-FITC/propidium iodide staining based flow cytometry (reference value: 1.3%); assay type: functional
[18] = organism: Homo sapiens; test: Inhibition of Akt in human MDA-MB-231 cells assessed as ratio of phosphorylated Akt to GAPDH expression level at 5 uM after 48 hrs by immunoblot analysis (reference value: 0.33 to 0.81); assay type: cell-based
[19] = tested on: MCF7; test: Induction of apoptosis in human MCF7 cells assessed as late apoptotic cells at 5 uM after 24 hrs by Annexin V-FITC/propidium iodide staining based flow cytometry (reference value: 2.3%); assay type: functional
[20] = organism: Homo sapiens; test: Inhibition of Akt in human MDA-MB-231 cells assessed as ratio of phosphorylated Akt to GAPDH expression level at 2 uM after 48 hrs by immunoblot analysis (reference value: 0.33 to 0.81); assay type: cell-based
[21] = Cell cycle arrest in human MCF7 cells assessed as accumulation at sub-G1 phase at 5 uM after 24 hrs by propidium iodide staining based flow cytometry (reference value: 3.58%); assay type: functional
[22] = tested on: MDA-MB-231; test: Effect on p53 gene expression in human MDA-MB-231 cells assessed as ratio of p53 to beta-actin expression level at 5 uM after 24 hrs by RT-PCR method (reference value: 0.22); assay type: functional
[23] = tested on: MDA-MB-231; test: Effect on cyclin D1 mRNA expression in human MDA-MB-231 cells assessed as ratio of cyclin D1 to GAPDH expression level at 5 uM after 24 hrs by RT-PCR method (reference value: 0.71); assay type: functional
[24] = Cell cycle arrest in human MCF7 cells assessed as accumulation at G2/M phase at 5 uM after 24 hrs by propidium iodide staining based flow cytometry (reference value: 9.29%); assay type: functional
[25] = tested on: MDA-MB-231; test: Ratio of Bcl-2 to Bax gene expression in human MDA-MB-231 cells at 5 uM after 24 hrs by RT-PCR method (reference value: 0.03); assay type: functional
[26] = tested on: MDA-MB-231; test: Induction of apoptosis in human MDA-MB-231 cells assessed as late apoptotic cells at 5 uM after 24 hrs by Annexin V-FITC/propidium iodide staining based flow cytometry (reference value: 1.8%); assay type: functional
[27] = tested on: MDA-MB-231; test: Effect on Cdk2 mRNA expression in human MDA-MB-231 cells assessed as ratio of Cdk2 to GAPDH expression level at 5 uM after 24 hrs by RT-PCR method (reference value: 0.26); assay type: functional
[28] = tested on: MCF7; test: Induction of apoptosis in human MCF7 cells assessed as necrotic cells at 5 uM after 24 hrs by Annexin V-FITC/propidium iodide staining based flow cytometry (reference value: 3.7%); assay type: functional
[29] = organism: Homo sapiens; test: Inhibition of Akt in human MDA-MB-231 cells assessed as ratio of phosphorylated Akt to GAPDH expression level at 10 uM after 48 hrs by immunoblot analysis (reference value: 0.33 to 0.81); assay type: cell-based
[30] = Cell cycle arrest in human MCF7 cells assessed as accumulation at G0/G1 phase at 5 uM after 24 hrs by propidium iodide staining based flow cytometry (reference value: 83.25%); assay type: functional
[31] = organism: Homo sapiens; test: Inhibition of Akt in human MDA-MB-231 cells assessed as ratio of phosphorylated GSK-3beta to GAPDH expression level at 10 uM after 48 hrs by immunoblot analysis (reference value: 0.14 to 1.50); assay type: cell-based
[32] = Homo sapiens, Epithelial cell, 48 h, read-out: IC50

## CCOC(=O)/C(=C/c1ccccc1)CN1C(=O)[C@@H](OC)[C@H]1c1cccc([N+](=O)[O-])c1
[1]
  IC50: 14.4 µM
[2]
  IC50: 19.9 µM
[3]; epithelial cell
  IC50: Non-Toxic

## COC(=O)/C(=C/c1ccccc1)CN1C(=O)[C@@H](OC)[C@H]1c1cccc(Cl)c1
[2]
  IC50: 25.1 µM
[3]; epithelial cell
  IC50: Non-Toxic

## CO[C@@H]1C(=O)N(C/C(C#N)=C/c2ccccc2)[C@@H]1c1ccccc1Br
[1]
  IC50: 10.7 µM
[2]
  IC50: 10.8 µM
[3]; epithelial cell
  IC50: Non-Toxic

## CO[C@@H]1C(=O)N(C/C(C#N)=C/c2ccccc2)[C@@H]1c1ccc2c(c1)OCO2
[2]
  IC50: 10.6 µM
[3]; [32]
  IC50: > 100 µM

## COC(=O)/C(=C/c1ccccc1)CN1C(=O)[C@@H](OC)[C@H]1c1cccc([N+](=O)[O-])c1
[1]
  IC50: 14.4 µM
[2]
  IC50: 15 µM
[3]; epithelial cell
  IC50: Non-Toxic

## COC(=O)/C(=C/c1ccccc1)CN1C(=O)[C@@H](OC)[C@H]1c1ccc(Cl)cc1
[1]
  IC50: 15.6 µM
[2]
  IC50: 15.2 µM
[3]; [32]
  IC50: 37.9 µM

## CO[C@@H]1C(=O)N(C/C(C#N)=C/c2ccccc2)[C@@H]1c1cccc(C)c1
[1]
  IC50: 11.1 µM
[2]
  IC50: 11.3 µM
[3]; epithelial cell
  IC50: Non-Toxic

## COC(=O)/C(=C/c1ccccc1)CN1C(=O)[C@@H](OC)[C@H]1c1ccc(OC)cc1
[1]
  IC50: 14 µM
[2]
  IC50: 11.6 µM
[3]; epithelial cell
  IC50: Non-Toxic

## COC(=O)/C(=C/c1ccccc1)CN1C(=O)[C@@H](OC)[C@H]1c1cccc(F)c1
[1]
  IC50: 34.4 µM
[2]
  IC50: 13.7 µM
[3]; [32]
  IC50: 38.5 µM

## CO[C@@H]1C(=O)N(C/C(C#N)=C/c2ccccc2)[C@@H]1c1ccc(C)cc1
[4]
  selectivity ratio: 10
[5]
  Ratio: 0.24
[6]
  Ratio: 0.51
[7]
  Ratio: 0.32
[8]
  inhibition: Dose-dependent effect
[9]
  Ratio: 0.16
[10]
  Activity: 9%
[11]
  Ratio: 0.15
[12]
  Activity: 1.3%
[13]
  Ratio: 0.04
[1]
  IC50: 9.27 µM
[14]
  Ratio: 0.08
[2]
  IC50: 9.99 µM
[15]
  inhibition: Dose-dependent effect
[16]
  Activity: 4.15%
[17]
  Activity: 1.4%
[18]
  Ratio: 0.09
[19]
  Activity: 12.8%
[20]
  Ratio: 0.35
[21]
  Activity: 2.22%
[22]
  Ratio: 0.17
[23]
  Ratio: 0.64
[24]
  Activity: 9.43%
[25]
  Ratio: 0.02
[26]
  Activity: 4.1%
[27]
  Ratio: 0.22
[28]
  Activity: 1.9%
[3]; epithelial cell
  IC50: Non-Toxic
[29]
  Ratio: 0.06
[30]
  Activity: 83%
[31]
  Ratio: 0.17

## COC(=O)/C(=C/c1ccccc1)CN1C(=O)[C@@H](OC)[C@H]1c1ccccc1
[1]
  IC50: 11.1 µM
[2]
  IC50: 12.9 µM
[3]; epithelial cell
  IC50: Non-Toxic

## COc1ccc(OC)c([C@@H]2[C@H](OC)C(=O)N2C/C(C#N)=C/c2ccccc2)c1
[1]
  IC50: 23.4 µM
[3]; [32]
  IC50: > 100 µM

## CCOC(=O)/C(=C/c1ccccc1)CN1C(=O)[C@@H](OC)[C@H]1c1ccc(F)cc1
[1]
  IC50: 14 µM
[2]
  IC50: 18.8 µM
[3]; epithelial cell
  IC50: Non-Toxic

## CO[C@@H]1C(=O)N(C/C(C#N)=C/c2ccccc2)[C@@H]1c1cccc2ccccc12
[2]
  IC50: 11.7 µM
[3]; epithelial cell
  IC50: Non-Toxic

## COC(=O)/C(=C/c1ccccc1)CN1C(=O)[C@@H](OC)[C@H]1c1ccc(F)cc1
[1]
  IC50: 21.8 µM
[2]
  IC50: 15.6 µM
[3]; [32]
  IC50: 27.9 µM

## CO[C@@H]1C(=O)N(C/C(C#N)=C/c2ccccc2)[C@@H]1c1ccc(Cl)cc1
[1]
  IC50: 18 µM
[2]
  IC50: 19.8 µM
[3]; epithelial cell
  IC50: Non-Toxic

## COC(=O)/C(=C/c1ccccc1)CN1C(=O)[C@@H](OC)[C@H]1c1ccc(Cl)cc1Cl
[1]
  IC50: 19 µM
[3]; [32]
  IC50: 70 µM

## COC(=O)/C(=C/c1ccccc1)CN1C(=O)[C@@H](OC)[C@H]1c1cccc(C(F)(F)F)c1
[1]
  IC50: 18.2 µM
[3]; [32]
  IC50: 71.8 µM

## COC(=O)/C(=C/c1ccccc1)CN1C(=O)[C@@H](OC)[C@H]1c1ccccc1C(F)(F)F
[1]
  IC50: 17.6 µM
[3]; epithelial cell
  IC50: Non-Toxic

## CCOC(=O)/C(=C/c1ccccc1)CN1C(=O)[C@@H](OC)[C@H]1c1ccc(Cl)cc1
[1]
  IC50: 11.1 µM
[2]
  IC50: 12.7 µM
[3]; epithelial cell
  IC50: Non-Toxic

## CO[C@@H]1C(=O)N(C/C(C#N)=C/c2ccccc2)[C@@H]1c1ccc(Br)cc1
[3]; epithelial cell
  IC50: Non-Toxic

## CO[C@@H]1C(=O)N(C/C(C#N)=C/c2ccccc2)[C@@H]1c1ccc(Cl)cc1Cl
[1]
  IC50: 17 µM
[2]
  IC50: 31.9 µM
[3]; [32]
  IC50: > 100 µM

— ChEMBL document CHEMBL3872232, “2-Azetidinones: Synthesis and biological evaluation as potential anti-breast cancer agents” (Eur J Med Chem, 2016)
